In US8815304B2, “Compositions and methods for promoting appetite suppression using alkali metals” (Ashberry International Limited, priority 2010, dated 2014):

Legend:
Assay type in all cases: in vivo, human
[1] = Example 1: alkali metal composition in water taken daily by a 100 kg person for two months; conditions: 300 mg in water, each over another two-month period
Description: A 100 kg person was administered a pharmaceutical composition of the invention. Cesium chloride ([…]), rubidium chloride ([…]) and lithium aspartate (40 milligrams) together were dissolved in one glass of water and ingested in the morning daily over a two month period.

[2] = Weight loss trials in one subject (first to fifth and further trials, Examples 4-9); conditions: for weight lost during the trial: two months (61 days)
From the text: The therapeutic efficacy of a composition in accordance with the present invention has been tested herein.
These trials were not undertaken to lose weight as quickly as possible but rather they were undertaken with the recommendation by doctors to the subject(s) not to lose weight too quickly and to eat potassium rich foods, especially at night, instead of junk food.
As such, the aim of these trials was to have the subjects lose weight and stop the cravings for junk food with the aid of the compositions of this invention and use the enhanced energy and stimulation supplied from the compositions to change eating habits away from junk food thereby facilitating weight loss.
During a first trial, a subject was administered 300 mg of cesium chloride once per day in a glass of water every morning. The first trial lasted two months (61 days) and the subject (100 kg) lost ten kilograms during this time period, as follows:
In a second trial, the subject was administered 120 mg of lithium carbonate once per day with a glass of water every morning for two months (59 days). The subject reported after two weeks the stress of trying to diminish junk food intake was reduced.
In a third trial, the subject was administered 40 mg of lithium carbonate with a glass of water every morning for two months. The subject reported that the most difficult aspect was to stop the craving for junk food in the evening and the late afternoon.
In a fourth trial, the subject was administered 300 mg of rubidium chloride once per once day in a glass of water in the morning. This trial lasted two months (61 days), and the subject lost ten kilograms during this time period. The most difficult aspect reported was the urge to eat junk food for dinner and the cravings in the evening, which contributed to poor weight loss at the beginning of the trial (an option for people who cannot stop eating junk food at night would be to split the dosage and take half in the morning and half late in the afternoon or increase the dosage to 200 mg in the morning and 200 mg in the late afternoon).
In a fifth trial, the subject was administered 150 mg of rubidium chloride, 150 mg cesium chloride, and 40 mg of lithium carbonate once per day together in a glass of water in the morning. This trial lasted two months (61 days) and the subject lost ten kilograms during this time period. The most difficult aspect reported by the subject was the craving for junk food for dinner or late in the afternoon. This contributed to the little weight loss early in the study.
In further trials, the subject was administered lithium salts—lithium orotate, lithium aspartate, and lithium citrate (40 mg) with a glass of water in the morning. The subject reported similar cravings as noted above.

[3] = Blind trial with two subjects (rubidium chloride vs powdered sugar placebo), Example 10; conditions: rubidium chloride 300 mg once per day
Description: In a blind trial with two subjects, a subject (66 kg) was administered 300 mg of rubidium chloride once per day in a glass of water in the morning for two months (61 days). The second subject was a person (98 kg) who was administered a placebo of powdered sugar once per day in a glass of water in the morning during the same two months.
The most difficult aspect reported by the subject was to stop eating junk food for dinner and to stop the craving for junk food in the evening, which is believed to be the reason for little weight loss at the beginning of the trial (a proposed solution for people who cannot stop eating at night would be to split the dosage of the 300 mg of rubidium chloride and take half in the morning and half late in the afternoon).
The aim of this trial was to have the subject lose weight and stop the craving for junk food with the aid of the composition. The enhanced energy and stimulation supplied from the composition that was tested to determine if it prompted a change in eating habits away from junk food, thereby facilitated weight loss. Both subjects stated there was a higher craving for junk food for them in the afternoon and evening.
The trial lasted two months and the subject lost no weight and found the powdered sugar caused no stimulation, while the subject lost 6.5 kilograms during this time period, as follows: […]

[4] = further trials, lithium salt 40 mg in the morning
[5] = further trials, lithium salt 40 mg in the morning, after two weeks
[6] = further trials, lithium salt 40 mg with a glass of water in the morning

[Cl-].[Cs+] [cesium chloride]
effect of the individual alkali metals ingested separately, compared with the combination [1]: worked as well and with the same sensation | Weight ([2]; first trial, cesium chloride 300 mg once per day, day 1-9): 100 kg | Weight ([2]; first trial, cesium chloride 300 mg once per day, day 10-13): 99 kg | Weight ([2]; first trial, cesium chloride 300 mg once per day, day 14-15): 98 kg | Weight ([2]; first trial, cesium chloride 300 mg once per day, day 16-23): 97 kg | Weight ([2]; first trial, cesium chloride 300 mg once per day, day 24-34): 96 kg | Weight ([2]; first trial, cesium chloride 300 mg once per day, day 35-41): 95 kg | Weight ([2]; first trial, cesium chloride 300 mg once per day, day 42-47): 94 kg | Weight ([2]; first trial, cesium chloride 300 mg once per day, day 48-52): 93 kg | Weight ([2]; first trial, cesium chloride 300 mg once per day, day 53-55): 92 kg | Weight ([2]; first trial, cesium chloride 300 mg once per day, day 56-58): 91 kg | Weight ([2]; first trial, cesium chloride 300 mg once per day, day 59-61): 90 kg | weight lost during the trial ([2]; first trial, cesium chloride 300 mg once per day, subject 100 kg): ten

N[C@@H](CC(=O)[O-])C(=O)[O-].[Li+].[Li+] [lithium aspartate]
feeling of stimulation (subject report) [2, 4]: not the feeling of stimulation as in the first and fourth trials | stress of trying to diminish junk food intake (subject report) [2, 5]: decreased | weight loss (in words) [2, 6]: Weight loss was recorded

O=C([O-])[O-].[Li+].[Li+] [lithium carbonate]
stress of trying to diminish junk food intake (subject report) ([2]; second trial, lithium carbonate 120 mg once per day, after two weeks): reduced | Weight ([2]; second trial, lithium carbonate 120 mg once per day, day 1-14): 100 kg | Weight ([2]; second trial, lithium carbonate 120 mg once per day, day 15-19): 99 kg | Weight ([2]; second trial, lithium carbonate 120 mg once per day, day 20-27): 98 kg | Weight ([2]; second trial, lithium carbonate 120 mg once per day, day 28-35): 97 kg | Weight ([2]; second trial, lithium carbonate 120 mg once per day, day 36-39): 96 kg | Weight ([2]; second trial, lithium carbonate 120 mg once per day, day 40-46): 95 kg | Weight ([2]; second trial, lithium carbonate 120 mg once per day, day 47-52): 94 kg | Weight ([2]; second trial, lithium carbonate 120 mg once per day, day 53-57): 93 kg | Weight ([2]; second trial, lithium carbonate 120 mg once per day, day 58-59): 92 kg | weight loss (in words) ([2]; second trial, lithium carbonate 120 mg once per day, two months (59 days)): Weight loss resulted | feeling of stimulation (subject report) ([2]; third trial, lithium carbonate 40 mg every morning): not the feeling of stimulation as in the first trial | stress of trying to reduce junk food intake (subject report) ([2]; third trial, lithium carbonate 40 mg every morning, after two weeks): reduced | Weight ([2]; third trial, lithium carbonate 40 mg every morning, day 1-15): 100 kg | Weight ([2]; third trial, lithium carbonate 40 mg every morning, day 16-25): 99 kg | Weight ([2]; third trial, lithium carbonate 40 mg every morning, day 26-34): 98 kg | Weight ([2]; third trial, lithium carbonate 40 mg every morning, day 35-41): 97 kg | Weight ([2]; third trial, lithium carbonate 40 mg every morning, day 42-48): 96 kg | Weight ([2]; third trial, lithium carbonate 40 mg every morning, day 49-53): 95 kg | Weight ([2]; third trial, lithium carbonate 40 mg every morning, day 54-57): 94 kg | Weight ([2]; third trial, lithium carbonate 40 mg every morning, day 58-60): 93 kg | Weight ([2]; third trial, lithium carbonate 40 mg every morning, day 61): 92 kg | weight loss (in words) ([2]; third trial, lithium carbonate 40 mg every morning, two months): Weight loss also resulted

O=C([O-])CC(O)(CC(=O)[O-])C(=O)[O-].[Li+].[Li+].[Li+] [lithium citrate]
feeling of stimulation (subject report) [2, 4]: not the feeling of stimulation as in the first and fourth trials | stress of trying to diminish junk food intake (subject report) [2, 5]: decreased | weight loss (in words) [2, 6]: Weight loss was recorded

O=C([O-])c1cc(=O)[nH]c(=O)[nH]1.[Li+] [lithium orotate]
feeling of stimulation (subject report) [2, 4]: not the feeling of stimulation as in the first and fourth trials | stress of trying to diminish junk food intake (subject report) [2, 5]: decreased | weight loss (in words) [2, 6]: Weight loss was recorded

[Cl-].[Rb+] [rubidium chloride]
effect of the individual alkali metals ingested separately, compared with the combination [1]: worked as well and with the same sensation | Weight ([2]; fourth trial, rubidium chloride 300 mg once per day, day 1-10): 102 kg | Weight ([2]; fourth trial, rubidium chloride 300 mg once per day, day 11-15): 101 kg | Weight ([2]; fourth trial, rubidium chloride 300 mg once per day, day 16-23): 100 kg | Weight ([2]; fourth trial, rubidium chloride 300 mg once per day, day 24-29): 99 kg | Weight ([2]; fourth trial, rubidium chloride 300 mg once per day, day 30-35): 98 kg | Weight ([2]; fourth trial, rubidium chloride 300 mg once per day, day 36-40): 97 kg | Weight ([2]; fourth trial, rubidium chloride 300 mg once per day, day 41-45): 96 kg | Weight ([2]; fourth trial, rubidium chloride 300 mg once per day, day 46-50): 95 kg | Weight ([2]; fourth trial, rubidium chloride 300 mg once per day, day 51-54): 94 kg | Weight ([2]; fourth trial, rubidium chloride 300 mg once per day, day 55-59): 93 kg | Weight ([2]; fourth trial, rubidium chloride 300 mg once per day, day 60-61): 92 kg | weight lost during the trial ([2]; fourth trial, rubidium chloride 300 mg once per day): ten | weight lost during the trial ([3]; subject (66 kg), two months (61 days)): 6.5 kilograms | craving for junk food (subject report) ([3]; subject): less craving for junk food than normal even after the first day | energy and activity during the day (subject report) ([3]; subject): much more energy than before | stimulation from the medication (subject report) ([3]; subject): very, very strong | Weight ([3]; subject, day 1-5): 66 kg | Weight ([3]; subject, day 6-9): 65.5 kg | Weight ([3]; subject, day 10-12): 65 kg | Weight ([3]; subject, day 13-18): 64 kg | Weight ([3]; subject, day 19-28): 63 kg | Weight ([3]; subject, day 29-30): 64 kg | Weight ([3]; subject, day 31-32): 63.5 kg | Weight ([3]; subject, day 33-34): 63 kg | Weight ([3]; subject, day 35-43): 62 kg | Weight ([3]; subject, day 44-51): 61 kg | Weight ([3]; subject, day 52-55): 60.5 kg | Weight ([3]; subject, day 56-59): 60 kg | Weight ([3]; subject, day 60-61): 59.5 kg
